Where a SMILES comes first, the peptide text is derived from it. [ ]: non-standard residue; d: D form. The star is where a group is joined. Met(O2) = CS(=O)(=O)CC[C@H](N)C(=O)O; Palmitoyl = CCCCCCCCCCCCCCCC(=O)*; Ava = NCCCCC(=O)O
Columns and labels:
[1] = tested on: dermal NHF; assay: Immunostaining method on dermal NHF: collagen I (Table 7, Test 2); type: cell-based, human; details: % difference compared to the control
Description: Table 7 showing % differences in collagen I in the dermis compared to the control for dioxygenated peptide compounds according to the immunostaining method or to ELISA test on dermal NHF

[2] = tested on: normal human dermal fibroblasts (NHF); assay: ELISA test on normal human dermal fibroblasts (NHF): macromolecules in culture supernatant; type: cell-based; details: % difference compared to the control; for Collagen I in the dermis Test 1: Table 7; for Collagen I in the dermis: 3 days contact
Protocol: > ELISA test on normal human dermal fibroblasts (NHF)
This test examines the dermal molecules.
Normal human dermal fibroblasts are cultured in multi-well plates. The cells either are or are not placed in contact with the test substances for 3 days. The culture supernatants are removed and the quantity of macromolecules present (collagen I, fibronectin, collagen IV and hyaluronic acid) is assayed by ELISA.

[3] = tested on: Human Keratinocytes (HK); assay: ELISA test on Human Keratinocytes (HK): macromolecules in culture supernatant; type: cell-based; details: epidermal HK, % difference compared to the control
Protocol: > ELISA test on Human Keratinocytes (HK)
This test examines epidermal molecules.
Human keratinocytes are cultured in multi-well plates. The cells either are or are not placed in contact with the test substances for 3 days. The culture supernatants are removed and the quantity of macromolecules present (fibronectin, laminins and hyaluronic acid) is assayed by ELISA.

[4] = tested on: normal human dermal fibroblasts (NHF); assay: Immunofluorescence (IMF) on normal human dermal fibroblasts (NHF): collagen III; type: cell-based; details: 5 ppm peptide
Protocol: > Immunofluorescence (IMF) on normal human dermal fibroblasts (NHF)
This test examines dermal molecules.
Norman human fibroblasts are cultured in plates. The cells either are or are not placed in contact with the test substances for […]. The cell layers are then labeled with antibodies specifically recognizing collagen III. Photographs were used to reveal and quantify the synthesis of collagen III.

[5] = Table 5, ELISA, 5 ppm peptide, no plant

Compound: CCCCCCCCCCCCCCCC(=O)NCCCCC(=O)N[C@@H](CCS(C)(=O)=O)C(N)=O [Pal-Ava-MO2-NH2]
- Collagen I in the dermis Test 2 ([1]; 2 ppm): +495%
- Collagen I in the dermis Test 2 ([1]; 4 ppm): +667%
- Collagen I in the dermis Test 2 ([1]; 6 ppm): +557%

Compound: CCCCCCCCCCCCCCCC(=O)N[C@@H](CCS(C)(=O)=O)C(=O)NCCCCC(N)=O [Pal-MO2-Ava-NH2]
- Collagen I in the dermis Test 2 ([1]; 2 ppm): +375%
- Collagen I in the dermis Test 2 ([1]; 4 ppm): +582%
- Collagen I in the dermis Test 2 ([1]; 6 ppm): +461%

Compound: CCCCCCCCCCCCCCCC(=O)N[C@@H](CCCCN)C(=O)N[C@@H](Cc1ccccc1)C(=O)N[C@@H](CCS(C)(=O)=O)C(=O)N[C@@H](CCCCN)C(=O)O [Pal-K-F-MO2-K-OH] (Palmitoyl-KF[Met(O2)]K-OH)
- Collagen I in the dermis Test 1 ([2]; 4 ppm): +80%
- Collagen I in the dermis Test 1 ([2]; 6 ppm): +81%

Compound: CCCCCCCCCCCCCCCC(=O)N[C@@H](CCCCN)C(=O)NCCCCC(=O)N[C@@H](CCS(C)(=O)=O)C(=O)N[C@@H](CCCCN)C(=O)O [Pal-K-Ava-MO2-K-OH] (Palmitoyl-K[Ava][Met(O2)]K-OH)
- Collagen I in the dermis Test 1 ([2]; 2 ppm): +63%
- Collagen I in the dermis Test 1 ([2]; 4 ppm): +167%

Compound: CCCCCCCCCCCCCCCC(=O)N[C@@H](CCCCN)C(=O)N[C@@H](C)C(=O)N[C@@H](CCCCN)C(=O)O [Pal-KAK-OH, reference compound] (Palmitoyl-Lys-Ala-Lys-OH)
- Coll. I ([2]; 4 ppm peptide): +42%
- Coll. IV ([2]; 4 ppm peptide): -6%
- Fibronectin ([2]; dermal NHF, 4 ppm peptide): +33%

Compound: CCCCCCCCCCCCCCCC(=O)N[C@@H](CCCCN)C(=O)N[C@@H](CCS(C)(=O)=O)C(=O)N[C@@H](CCCCN)C(=O)O [Pal-KMO2K-OH] (Palmitoyl-Lys-[Met(O2)]-Lys-OH)
- Hyaluronic acid ([3]; Table 6, 2 ppm peptide, no plant): +44%
- Hyaluronic acid ([3]; Table 6, 4 ppm peptide, no plant): +139%
- Hyaluronic acid ([3]; Table 6, 5 ppm peptide, no plant): +172%
- Hyaluronic acid ([3]; Table 6, 6 ppm peptide, no plant): +290%
- Fibronectin ([3]; 4 ppm peptide): +35%
- Hyaluronic acid ([3]; 4 ppm peptide): +139%
- Laminins ([3]; 4 ppm peptide): +30%
- Fibronectin ([3]; 5 ppm peptide): +65%
- Hyaluronic acid ([3]; 5 ppm peptide): +172%
- Laminins ([3]; 5 ppm peptide): +66%
- Fibronectin ([3]; 6 ppm peptide): +159%
- Hyaluronic acid ([3]; 6 ppm peptide): +290%
- Laminins ([3]; 6 ppm peptide): +172%
- Coll. III ([4]; % difference compared to the control, 35 days contact): +104%
- Coll. III ([4]; Table 5, % difference compared to the control, no plant): +104%
- Coll. I ([2]; 4 ppm peptide): +188%
- Coll. IV ([2]; 4 ppm peptide): +27%
- Collagen I in the dermis ([2]; 4 ppm peptide): +188%
- Coll. I ([2]; 6 ppm peptide): +187%
- Coll. IV ([2]; 6 ppm peptide): +97%
- Collagen I in the dermis ([2]; 6 ppm peptide): +187%
- Coll. I [2, 5]: +111%
- Coll. IV [2, 5]: +42%
- Fibronectin [2, 5]: +59%
- Hyaluronic acid [2, 5]: ≈0%
- Collagen I in the dermis Test 1 ([2]; 4 ppm): +188%
- Collagen I in the dermis Test 1 ([2]; 6 ppm): +187%
- Fibronectin ([2]; dermal NHF, 4 ppm peptide): +42%
- Hyaluronic acid ([2]; dermal NHF, 4 ppm peptide): ≈0%
- Fibronectin ([2]; dermal NHF, 6 ppm peptide): +109%
- Hyaluronic acid ([2]; dermal NHF, 6 ppm peptide): +55%
- Collagen I in the dermis Test 2 ([1]; 2 ppm): +329%
- Collagen I in the dermis Test 2 ([1]; 4 ppm): +423%
- Collagen I in the dermis Test 2 ([1]; 5 ppm): +486%

Compound: CCCCCCCCCCCCCCCC(=O)N[C@@H](CCCCN)C(=O)N[C@H](C(=O)N[C@@H](Cc1ccccc1)C(=O)N[C@@H](CCS(C)(=O)=O)C(N)=O)[C@@H](C)O [Pal-K-T-F-MO2-NH2] (Palmitoyl-KTF[Met(O2)]-NH2)
- Collagen I in the dermis Test 1 ([2]; 4 ppm): +106%
- Collagen I in the dermis Test 1 ([2]; 6 ppm): +121%
- Collagen I in the dermis Test 2 ([1]; 2 ppm): +267%
- Collagen I in the dermis Test 2 ([1]; 4 ppm): +420%
- Collagen I in the dermis Test 2 ([1]; 6 ppm): +400%

Compound: CCCCCCCCCCCCCCCC(=O)N[C@@H](CCCCN)C(=O)N[C@H](C(=O)N[C@@H](CCS(C)(=O)=O)C(=O)N[C@@H](CCCCN)C(=O)O)[C@@H](C)O [Pal-K-T-MO2-K-OH] (Palmitoyl-KT[Met(O2)]K-OH)
- Collagen I in the dermis Test 1 ([2]; 4 ppm): +75%
- Collagen I in the dermis Test 1 ([2]; 6 ppm): +161%
- Collagen I in the dermis Test 2 ([1]; 2 ppm): +273%
- Collagen I in the dermis Test 2 ([1]; 4 ppm): +341%
- Collagen I in the dermis Test 2 ([1]; 6 ppm): +262%

Compound: CCCCCCCCCCCCCCCC(=O)N[C@@H](CCCCN)C(=O)N[C@@H](CCS(C)(=O)=O)C(=O)N[C@H](C(=O)N[C@@H](CCCCN)C(=O)O)[C@@H](C)O [Pal-K-MO2-T-K-OH] (Palmitoyl-K[Met(O2)]TK-OH)
- Collagen I in the dermis Test 1 ([2]; 4 ppm): +45%
- Collagen I in the dermis Test 1 ([2]; 6 ppm): +194%
- Collagen I in the dermis Test 2 ([1]; 4 ppm): +192%
- Collagen I in the dermis Test 2 ([1]; 6 ppm): +217%

Compound: CCCCCCCCCCCCCCCC(=O)N[C@@H](CCCCN)C(=O)N[C@@H](CO)C(=O)N[C@@H](CCCCN)C(=O)O [Pal-KSK-OH, reference compound] (Palmitoyl-Lys-Ser-Lys-OH)
- Coll. I ([2]; 4 ppm peptide): +46%
- Coll. IV ([2]; 4 ppm peptide): +1%
- Fibronectin ([2]; dermal NHF, 4 ppm peptide): +26%

Compound: CCCCCCCCCCCCCCCC(=O)N[C@@H](CCCCN)C(=O)N[C@@H](CS)C(=O)N[C@@H](CCCCN)C(=O)O [Pal-KCK-OH] (Palmitoyl-Lys-Cys-Lys-OH)
- Coll. I ([2]; 4 ppm peptide): +145%
- Coll. IV ([2]; 4 ppm peptide): -1%
- Collagen I in the dermis ([2]; 4 ppm peptide): +145%
- Coll. I ([2]; 6 ppm peptide): +133%
- Coll. IV ([2]; 6 ppm peptide): +23%
- Collagen I in the dermis ([2]; 6 ppm peptide): +133%
- Fibronectin ([2]; dermal NHF, 4 ppm peptide): +57%
- Fibronectin ([2]; dermal NHF, 6 ppm peptide): +70%

Compound: CCCCCCCCCCCCCCCC(=O)N[C@@H](CCCCN)C(=O)N[C@@H](CCS(C)(=O)=O)C(=O)NCCCCC(=O)N[C@@H](CCCCN)C(=O)O [Pal-K-MO2-Ava-K-OH] (Palmitoyl-K[Met(O2)][Ava]K-OH)
- Collagen I in the dermis Test 1 ([2]; 2 ppm): +75%

Compound: CCCCCCCCCCCCCCCC(=O)N[C@@H](CCS(C)(=O)=O)C(=O)N[C@H](C(=O)N[C@@H](Cc1ccccc1)C(=O)N[C@@H](CCCCN)C(=O)O)[C@@H](C)O [Pal-MO2-T-F-K-OH] (Palmitoyl-[Met(O2)]TFK-OH)
- Collagen I in the dermis Test 1 ([2]; 4 ppm): +111%
- Collagen I in the dermis Test 1 ([2]; 6 ppm): +148%
- Collagen I in the dermis Test 2 ([1]; 2 ppm): +218%
- Collagen I in the dermis Test 2 ([1]; 4 ppm): +456%
- Collagen I in the dermis Test 2 ([1]; 6 ppm): +520%

Compound: CCCCCCCCCCCCCCCC(=O)N[C@@H](CCCCN)C(=O)N[C@@H](CCC(N)=O)C(=O)N[C@@H](CCCCN)C(=O)O [Pal-KQK-OH]
- Coll. I ([2]; 5 ppm peptide): +82%
- Fibronectin ([2]; dermal NHF, 5 ppm peptide): +35%

Compound: CCCCCCCCCCCCCCCC(=O)N[C@@H](CCCCN)C(=O)N[C@@H](CC(N)=O)C(=O)N[C@@H](CCCCN)C(=O)O [Pal-KNK-OH] (Palmitoyl-Lys-Asn-Lys-OH)
- Collagen I in the dermis ([2]; 5 ppm peptide): +55%

Compound: CCCCCCCCCCCCCCCC(=O)N[C@@H](CCCCN)C(=O)N[C@@H](CCSC)C(=O)N[C@@H](CCCCN)C(=O)O [Pal-KMK-OH] (Palmitoyl-Lys-Met-Lys-OH)
- Collagen I in the dermis ([2]; 4 ppm peptide): +21%
- Collagen I in the dermis ([2]; 8 ppm peptide): +64%
- Collagen I in the dermis Test 1 ([2]; 4 ppm): +21%
- Collagen I in the dermis Test 1 ([2]; 6 ppm): +63%

Compound: CCCCCCCCCCCCCCCC(=O)N[C@@H](CCS(C)(=O)=O)C(=O)N[C@@H](CCCCN)C(=O)O [Pal-MO2-K-OH] (Palmitoyl-[Met(O2)]-Lys-OH)
- Collagen I in the dermis Test 2 ([1]; 2 ppm): +270%
- Collagen I in the dermis Test 2 ([1]; 4 ppm): +457%
- Collagen I in the dermis Test 2 ([1]; 6 ppm): +226%

Compound: CCCCCCCCCCCCCCCC(=O)N[C@@H](CCCCN)C(=O)NCCCCC(=O)N[C@@H](CCCCN)C(=O)O [Pal-K-Ava-K-OH, reference compound]
- Collagen I in the dermis Test 1 ([2]; 4 ppm): +116%
- Collagen I in the dermis Test 1 ([2]; 6 ppm): +175%

Compound: CCCCCCCCCCCCCCCC(=O)N[C@@H](CCCCN)C(=O)N[C@@H](CCS(C)(=O)=O)C(=O)N[C@@H](Cc1ccccc1)C(=O)N[C@@H](CCCCN)C(=O)O [Pal-K-MO2-F-K-OH] (Palmitoyl-K[Met(O2)]FK-OH)
- Collagen I in the dermis Test 1 ([2]; 4 ppm): +91%

Compound: CCCCCCCCCCCCCCCC(=O)N[C@@H](CCCCN)C(=O)N[C@H](C(=O)N[C@@H](Cc1ccccc1)C(=O)N[C@@H](CCCCN)C(=O)O)[C@@H](C)O [Pal-K-T-F-K-OH, reference compound] (Palmitoyl-KTFK-OH)
- Collagen I in the dermis Test 1 ([2]; 4 ppm): +82%
- Collagen I in the dermis Test 1 ([2]; 6 ppm): +103%
